Results taken from ChEMBL document CHEMBL1124596, “Introduction of a putative dopaminergic prodrug moiety into a 6,7-substitution pattern characteristic of certain 2-aminotetralin dopaminergic agonists” (1989).

The compounds below were run on Felis catus (assay: Inhibition of cat cardiac response to cardioaccelerator nerve stimulation, when administered intravenously). Conditions: iv, read-out: ID50 (the source's name).
Format: functional
Compound `CCCN(CCC)C1CCc2cc(C)c(O)cc2C1` (centres undefined) has an ED50 of 0.54 µmol/kg. `CN1CCc2cccc3c2[C@H]1Cc1ccc(O)c(O)c1-3` [APOMORPHINE] gave an ED50 of 0.035 µmol/kg. Work on `CCCN(CCC)C1CCc2c(ccc(C)c2O)C1` (centres undefined) yielded an ED50 of 0.25 µmol/kg. For `CCCN(CCC)C1CCc2cc(O)c(C)cc2C1` (centres undefined), the ED50 was 1.75 µmol/kg.
